Reference: US8722849B2, “Polypeptides” (Novo Nordisk A/S, priority 2011, dated 2014)
Converted amounts (≈) assume the structure as drawn. Like-named read-outs stand apart in the source and are kept apart here. Starred links: 1 amine or outer side, 2 acyl side, 3 side chain; linkers in the order of their positions; H or OH if unused. Positions of bridges follow the written chain, without caps; N, C: chain ends. Residues, ends and D or L forms follow the SMILES beside them. *: point of attachment. C20 diacid = O=C(O)CCCCCCCCCCCCCCCCCCC(=O)*; γGlu = O=C(O)[C@H](CCC(=O)[*:2])N[*:1]

Tests used:
[1] = target: T1, human amylin receptor (amylin 3(a) receptor: human calcitonin receptor + RAMP-3) (Homo sapiens, UniProt O60896+P30988); experiment: Assay (II)a functional CRE-luciferase assay, human amylin receptor; type: cell-based; conditions: Table 2; BHK amylin 3(a)-receptor/CRE-luc cells
T1 construct: expressed in transfected cells; host or cells: BHK570
T1 sequence (P30988 25-474): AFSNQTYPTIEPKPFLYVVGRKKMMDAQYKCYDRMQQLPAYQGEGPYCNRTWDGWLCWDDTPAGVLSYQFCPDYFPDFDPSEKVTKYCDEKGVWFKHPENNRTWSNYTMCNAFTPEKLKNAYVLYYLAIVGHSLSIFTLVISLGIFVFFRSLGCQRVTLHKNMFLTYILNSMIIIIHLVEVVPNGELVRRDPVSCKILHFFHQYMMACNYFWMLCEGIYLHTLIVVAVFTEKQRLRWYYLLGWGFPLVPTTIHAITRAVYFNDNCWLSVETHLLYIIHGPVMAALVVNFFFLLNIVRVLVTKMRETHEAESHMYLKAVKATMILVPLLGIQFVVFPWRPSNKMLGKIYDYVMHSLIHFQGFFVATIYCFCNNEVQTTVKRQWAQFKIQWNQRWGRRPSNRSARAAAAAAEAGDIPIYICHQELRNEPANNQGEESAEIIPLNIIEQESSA
T1 sequence (O60896 24-148 partner): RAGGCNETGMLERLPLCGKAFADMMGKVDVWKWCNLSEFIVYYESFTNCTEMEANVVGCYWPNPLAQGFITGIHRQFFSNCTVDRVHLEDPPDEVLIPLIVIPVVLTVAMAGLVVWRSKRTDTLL

[2] = Assay (III) ThT fibrillation assay for physical stability; type: physicochemical
Summary of the method: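 Freshly prepared formulations, pH-adjusted, with 1 μM ThT; four or eight replicates incubated at 37 °C under 960 rpm orbital shaking. Fluorescence (ex 444/em 485 nm) read every 20 min; […]. Peptide concentration measured by RP-HPLC before and after the run.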

[3] = Assay (IV) determination of solubility; type: physicochemical
Summary of the method: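 Solubility is measured across pH 3.0–8.0 by mixing a ~500 nmol/ml aqueous polypeptide stock 1:1 with 100 mM glycylglycine or bistrispropane buffers. Samples stand 18 hours at room temperature, then are centrifuged and the soluble concentration is determined by HPLC.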

[4] = target: T2, human calcitonin receptor (Homo sapiens, UniProt P30988); experiment: Assay (II)a functional CRE-luciferase assay, human calcitonin receptor; type: cell-based; conditions: Table 7; human calcitonin (CTa) receptor
T2 construct: expressed in transfected cells; host or cells: BHK570
T2 sequence (P30988 25-474): T1 sequence (P30988 25-474)

[5] = bistrispropane buffer, pH 6, pH 6.0, read-out: Solubility pH 6.0
[6] = bistrispropane buffer, pH 6.5, pH 6.5, read-out: Solubility pH 6.5
[7] = bistrispropane buffer, pH 7, pH 7.0, read-out: Solubility pH 7.0
[8] = bistrispropane buffer, pH 7.5, pH 7.5, read-out: Solubility pH 7.5
[9] = bistrispropane buffer, pH 8, pH 8.0, read-out: Solubility pH 8.0
[10] = glycylglycine buffer, pH 3, pH 3.0, read-out: Solubility pH 3.0
[11] = glycylglycine buffer, pH 4, pH 4.0, 18 hours at room temperature, Table 2, read-out: Solubility pH 4.0
[12] = glycylglycine buffer, pH 4, pH 4.0, read-out: Solubility pH 4.0
[13] = glycylglycine buffer, pH 5, pH 5.0, read-out: Solubility pH 5.0

EC50 [1]	ThT pH 4.0 lag time ([2]; Table 8)	ThT pH 4.0 lag time ([2]; Table 9)	ThT pH 4.0 lag time ([2]; ThT fibrillation assay)	ThT pH 4.0 lag time (h) ([2]; ThT fibrillation assay)	solubility at 18 h [3, 5]	solubility at 18 h [3, 6]	solubility at 18 h ([3]; bistrispropane buffer, pH 7, pH 7.0, 18 hours at room temperature, Table 3, read-out: Solubility pH 7.0)	solubility at 18 h ([3]; bistrispropane buffer, pH 7, pH 7.0, Table 8, read-out: Solubility pH 7.0)	solubility at 18 h ([3]; bistrispropane buffer, pH 7, pH 7.0, Table 9, read-out: Solubility pH 7.0)	solubility at 18 h [3, 7]	solubility at 18 h ([3]; bistrispropane buffer, pH 7.5, pH 7.5, Table 9, read-out: Solubility pH 7.5)	solubility at 18 h [3, 8]	solubility at 18 h [3, 9]	solubility at 18 h [3, 10]	solubility at 18 h [3, 11]	solubility at 18 h [3, 12]	solubility at 18 h [3, 13]	EC50 [4]	Molecule
91 pM	>45 h	>45 h	>45 h	>45 h	> 200 µM	> 200 µM	> 200 µM	> 200 µM	> 200 µM	> 200 µM	> 200 µM	> 200 µM	> 200 µM	> 200 µM	> 200 µM	> 200 µM	> 200 µM	45 pM	CC[C@H](C)[C@H](NC(=O)[C@@H]1CCCN1C(=O)CNC(=O)[C@H](Cc1ccccc1)NC(=O)[C@H](CC(N)=O)NC(=O)[C@H](CCC(N)=O)NC(=O)[C@H](CO)NC(=O)[C@H](CO)NC(=O)[C@H](Cc1c[nH]cn1)NC(=O)[C@H](Cc1c[nH]cn1)NC(=O)[C@H](CC(C)C)NC(=O)[C@H](Cc1ccccc1)NC(=O)[C@H](CCC(=O)O)NC(=O)[C@H](C)NC(=O)[C@H](CC(C)C)NC(=O)[C@H](CCCNC(=N)N)NC(=O)[C@H](CCC(N)=O)NC(=O)[C@@H](NC(=O)[C@H](C)NC(=O)[C@@H]1CSSC[C@H](NC(=O)[C@H](CCCCN)NC(=O)CC[C@H](NC(=O)CCCCCCCCCCCCCCCCCCC(=O)O)C(=O)O)C(=O)N[C@@H](CC(N)=O)C(=O)N[C@@H]([C@@H](C)O)C(=O)N[C@@H](C)C(=O)N[C@@H]([C@@H](C)O)C(=O)N1)[C@@H](C)O)C(=O)N[C@@H](CC(C)C)C(=O)N1CCC[C@H]1C(=O)N1CCC[C@H]1C(=O)N[C@H](C(=O)N[C@@H](CC(N)=O)C(=O)N[C@H](C(=O)NCC(=O)N[C@@H](CO)C(=O)N[C@@H](CCC(N)=O)C(=O)N[C@H](C(=O)N1CCC[C@H]1C(N)=O)[C@@H](C)O)C(C)C)[C@@H](C)O [Example 136, N-alpha-[(S)-4-Carboxy-4-(19-carboxynonadecanoylamino)butyryl]-[Glu14,His17,Gln21,Gln35,Pro37]-pramlintide] ({C20 diacid-γGlu}-KCNTATCATQRLAEFLHHSSQNFGPILPPTNVGSQTP-NH2; disulfide 2-7 (inferred))
306 pM	–	–	–	10.6 h	21 µM	20 µM	–	–	–	52 µM	–	> 200 µM	> 200 µM	> 200 µM	> 200 µM	> 200 µM	> 200 µM	669 pM	{C20 diacid-γGlu}-SSGSSGHCNTATCATQRLAEFLHHSSNNFGPILPPTNVGSNTY-NH2 (disulfide 8-13 (inferred); C-terminus assumed) [Example 44, N-alpha-[(S)-4-Carboxy-4-(19-carboxynonadecanoylamino)butyryl]-Ser-Ser-Gly-Ser-Ser-Gly-[His1,Glu14,His17]-pramlintide]
98 pM	–	–	>45 h	>45 h	> 200 µM	161 µM (≈ 724 µg/mL)	–	–	–	23 µM (≈ 103 µg/mL)	–	4 µM (≈ 18 µg/mL)	2 µM (≈ 9 µg/mL)	> 200 µM	> 200 µM	> 200 µM	> 200 µM	104 pM	CC[C@H](C)[C@H](NC(=O)[C@@H]1CCCN1C(=O)CNC(=O)[C@H](Cc1ccccc1)NC(=O)[C@H](CC(N)=O)NC(=O)[C@H](CC(N)=O)NC(=O)[C@H](CO)NC(=O)[C@H](CO)NC(=O)[C@H](Cc1c[nH]cn1)NC(=O)[C@H](Cc1c[nH]cn1)NC(=O)[C@H](CC(C)C)NC(=O)[C@H](Cc1ccccc1)NC(=O)[C@H](CCC(=O)O)NC(=O)[C@H](C)NC(=O)[C@H](CC(C)C)NC(=O)[C@H](CCCNC(=N)N)NC(=O)[C@H](CCC(N)=O)NC(=O)[C@@H](NC(=O)[C@H](C)NC(=O)[C@@H]1CSSC[C@H](NC(=O)[C@H](CCCCN)NC(=O)CC[C@H](NC(=O)CCCCCCCCCCCCCCCCCCC(=O)O)C(=O)O)C(=O)N[C@@H](CC(N)=O)C(=O)N[C@@H]([C@@H](C)O)C(=O)N[C@@H](C)C(=O)N[C@@H]([C@@H](C)O)C(=O)N1)[C@@H](C)O)C(=O)N[C@@H](CC(C)C)C(=O)N1CCC[C@H]1C(=O)N1CCC[C@H]1C(=O)N[C@H](C(=O)N[C@@H](CC(N)=O)C(=O)N[C@H](C(=O)NCC(=O)N[C@@H](CO)C(=O)N[C@@H](CCCNC(=N)N)C(=O)N[C@H](C(=O)N[C@@H](Cc1ccc(O)cc1)C(N)=O)[C@@H](C)O)C(C)C)[C@@H](C)O [Example 112, N-alpha-[(S)-4-Carboxy-4-(19-carboxynonadecanoylamino)butyryl]-[Glu14,His17,Arg35]-pramlintide] ({C20 diacid-γGlu}-KCNTATCATQRLAEFLHHSSNNFGPILPPTNVGSRTY-NH2; disulfide 2-7 (inferred); C-terminus assumed)
93.5 pM	–	–	>45 h	>45 h	> 200 µM	170 µM (≈ 788 µg/mL)	–	–	–	17 µM (≈ 78.8 µg/mL)	–	6 µM (≈ 27.8 µg/mL)	7 µM (≈ 32.4 µg/mL)	> 200 µM	> 200 µM	> 200 µM	> 200 µM	430 pM	CC[C@H](C)[C@H](NC(=O)[C@@H]1CCCN1C(=O)CNC(=O)[C@H](Cc1ccccc1)NC(=O)[C@H](CC(N)=O)NC(=O)[C@H](CC(N)=O)NC(=O)[C@H](CO)NC(=O)[C@H](CO)NC(=O)[C@H](Cc1c[nH]cn1)NC(=O)[C@H](CCCNC(=N)N)NC(=O)[C@H](CC(C)C)NC(=O)[C@H](Cc1ccccc1)NC(=O)[C@H](CCC(=O)O)NC(=O)[C@H](C)NC(=O)[C@H](CC(C)C)NC(=O)[C@H](CCCNC(=N)N)NC(=O)[C@H](CCC(N)=O)NC(=O)[C@@H](NC(=O)[C@H](C)NC(=O)[C@@H]1CSSC[C@H](NC(=O)[C@H](CCCCN)NC(=O)[C@H](Cc2c[nH]cn2)NC(=O)CC[C@H](NC(=O)CCCCCCCCCCCCCCCCCCC(=O)O)C(=O)O)C(=O)N[C@@H](CC(N)=O)C(=O)N[C@@H]([C@@H](C)O)C(=O)N[C@@H](C)C(=O)N[C@@H]([C@@H](C)O)C(=O)N1)[C@@H](C)O)C(=O)N[C@@H](CC(C)C)C(=O)N1CCC[C@H]1C(=O)N1CCC[C@H]1C(=O)N[C@H](C(=O)N[C@@H](CC(N)=O)C(=O)N[C@H](C(=O)NCC(=O)N[C@@H](CO)C(=O)N[C@@H](Cc1c[nH]cn1)C(=O)N[C@H](C(=O)N[C@@H](Cc1ccc(O)cc1)C(N)=O)[C@@H](C)O)C(C)C)[C@@H](C)O [Example 68, N-alpha-[(S)-4-Carboxy-4-(19-carboxynonadecanoylamino)butyryl]-His-[Glu14,Arg17,His35]-pramlintide] ({C20 diacid-γGlu}-HKCNTATCATQRLAEFLRHSSNNFGPILPPTNVGSHTY-NH2; disulfide 3-8 (inferred); C-terminus assumed)
